Results as given in PMC10066365, “Nemacol is a small molecule inhibitor of C. elegans vesicular acetylcholine transporter with anthelmintic potential” (Nature Communications, 2023).
Several values for one entry are separate records, joined by “and”; a condition that tells them apart may be missing. Equal entries are not always repeated.

Assays:
[1] = test system: Dirofilaria immitis L3/L4; assay: Dirofilaria immitis L3/L4 motility assay (DiroImager, 72 h); details: Dirofilaria immitis L4
[2] = test system: C. elegans; assay: C. elegans motor phenotype scoring on solid media (Punc/jerky-unc, coiled, paralyzed), wild-type young adults; assay type: in vivo, Caenorhabditis elegans; details: for atypical locomotion (number of animals) / coiled (number of animals) / no phene (number of animals) / paralyzed (number of animals) / any phene: mean % fraction of young adults exhibiting any phenotype (coiled, jerky-Unc or paralyzed): one hour; for atypical locomotion (number of animals) / coiled (number of animals) / no phene (number of animals) / paralyzed (number of animals): young adults, 20 animals per trial, single technical replicate; for any phene: mean % fraction of young adults exhibiting any phenotype (coiled, jerky-Unc or paralyzed): mean of three biological replicates; for EC50: Caenorhabditis elegans, any motor phenotype after 1 h on solid media, ± 95% CI, read-out: C. elegans - motor disruption EC50
[3] = test system: Dirofilaria immitis microfilariae; assay: Dirofilaria immitis microfilariae immobility assay (DiroImager, 72 h); details: Dirofilaria immitis microfilariae
Summary of the method: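 About 250 freshly purified microfilariae of the Missouri isolate per well in supplemented RPMI 1640, exposed to compound for 72 h. Motility scored by automated whole-plate optical imaging; medium with 1% DMSO as negative control.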

[4] = test system: Pristionchus pacificus; assay: Pristionchus pacificus motor disruption dose-response on solid media, 1 h; details: for EC50: Pristionchus pacificus, 1 h, read-out: P. pacificus motor disruption EC50; for mean % any phene: any phenotype (coiled, jerky-Unc or paralyzed) at one hour, mean of three biological replicates; for rep 1 no phene / rep 1 paralyzed / rep 2 atypical locomotion / rep 2 coiled / rep 2 no phene / rep 2 paralyzed / rep 3 atypical locomotion / rep 3 no phene / rep 3 paralyzed / rep 1 atypical locomotion / rep 1 coiled / rep 3 coiled: count of 20 animals per trial, one hour

Fc1ccccc1N1CCN(C2CCCCCC2)CC1 [Nemacol-56]
% effect (motility), DIROIM L4 ([1]; 10 µM): 0% | % effect (motility), DIROIM L4 ([1]; 50 µM): 15% | atypical locomotion (number of animals) ([2]; 3.75uM): 2 and 3 and 12 and 10 | coiled (number of animals) ([2]; 3.75uM): 0 | no phene (number of animals) ([2]; 3.75uM): 18 and 17 and 8 and 10 | paralyzed (number of animals) ([2]; 3.75uM): 0 | any phene: mean % fraction of young adults exhibiting any phenotype (coiled, jerky-Unc or paralyzed) ([2]; 3.75uM): 25.8333% | atypical locomotion (number of animals) ([2]; 15uM): 12 and 18 and 7 and 14 and 16 | coiled (number of animals) ([2]; 15uM): 0 and 2 | no phene (number of animals) ([2]; 15uM): 8 and 2 and 13 and 4 | paralyzed (number of animals) ([2]; 15uM): 0 and 2 | any phene: mean % fraction of young adults exhibiting any phenotype (coiled, jerky-Unc or paralyzed) ([2]; 15uM): 69.1667% | atypical locomotion (number of animals) ([2]; 60uM): 2 and 3 and 10 and 0 | coiled (number of animals) ([2]; 60uM): 5 and 6 and 4 and 3 and 8 | no phene (number of animals) ([2]; 60uM): 0 | paralyzed (number of animals) ([2]; 60uM): 13 and 11 and 6 and 14 and 15 and 12 | any phene: mean % fraction of young adults exhibiting any phenotype (coiled, jerky-Unc or paralyzed) ([2]; 60uM): 100% | EC50 [2]: 8 ± 3.3 µM | % effect (motility), DIROIM MF ([3]; 0.016 µM): 0% | % effect (motility), DIROIM MF ([3]; 0.08 µM): 0% | % effect (motility), DIROIM MF ([3]; 0.4 µM): 0% | % effect (motility), DIROIM MF ([3]; 2 µM): 0% | % effect (motility), DIROIM MF ([3]; 10 µM): 0% | EC50 [4]: 38.4 ± 4.7 µM | mean % any phene ([4]; conc 3.75): 2.5% | rep 1 no phene ([4]; conc 3.75): 20 and 18 | rep 1 paralyzed ([4]; conc 3.75): 0 | rep 2 atypical locomotion ([4]; conc 3.75): 0 | rep 2 coiled ([4]; conc 3.75): 0 | rep 2 no phene ([4]; conc 3.75): 20 | rep 2 paralyzed ([4]; conc 3.75): 0 | rep 3 atypical locomotion ([4]; conc 3.75): 0 | rep 3 no phene ([4]; conc 3.75): 20 and 19 | rep 3 paralyzed ([4]; conc 3.75): 0 | mean % any phene ([4]; conc 15): 0.8333% | rep 1 atypical locomotion ([4]; conc 15): 0 | rep 1 coiled ([4]; conc 15): 0 | rep 1 no phene ([4]; conc 15): 20 | rep 1 paralyzed ([4]; conc 15): 0 | rep 2 coiled ([4]; conc 15): 0 | rep 2 no phene ([4]; conc 15): 19 and 20 | rep 2 paralyzed ([4]; conc 15): 0 | rep 3 atypical locomotion ([4]; conc 15): 0 | rep 3 coiled ([4]; conc 15): 0 | rep 3 no phene ([4]; conc 15): 20 | rep 3 paralyzed ([4]; conc 15): 0 | mean % any phene ([4]; conc 60): 85% | rep 1 atypical locomotion ([4]; conc 60): 10 | rep 1 coiled ([4]; conc 60): 4 and 2 | rep 1 no phene ([4]; conc 60): 2 | rep 1 paralyzed ([4]; conc 60): 4 and 6 | rep 2 no phene ([4]; conc 60): 5 and 3 | rep 3 atypical locomotion ([4]; conc 60): 14 and 13 | rep 3 coiled ([4]; conc 60): 3 and 4 | rep 3 no phene ([4]; conc 60): 3 | rep 3 paralyzed ([4]; conc 60): 0

c1ccc(N2CCN(C3CCCCCCC3)CC2)cc1 [Nemacol-54]
% effect (motility), DIROIM L4 ([1]; 10 µM): 0% | % effect (motility), DIROIM L4 ([1]; 50 µM): 25% | atypical locomotion (number of animals) ([2]; 3.75uM): 7 and 14 and 6 and 3 and 12 and 10 | coiled (number of animals) ([2]; 3.75uM): 0 | no phene (number of animals) ([2]; 3.75uM): 11 and 4 and 14 and 17 and 8 and 10 | paralyzed (number of animals) ([2]; 3.75uM): 2 and 0 | any phene: mean % fraction of young adults exhibiting any phenotype (coiled, jerky-Unc or paralyzed) ([2]; 3.75uM): 46.6667% | atypical locomotion (number of animals) ([2]; 15uM): 8 and 13 and 15 and 18 and 17 | coiled (number of animals) ([2]; 15uM): 2 and 1 and 0 | no phene (number of animals) ([2]; 15uM): 0 and 5 and 3 | paralyzed (number of animals) ([2]; 15uM): 10 and 6 and 0 and 1 | any phene: mean % fraction of young adults exhibiting any phenotype (coiled, jerky-Unc or paralyzed) ([2]; 15uM): 93.3333% | atypical locomotion (number of animals) ([2]; 60uM): 2 and 4 and 6 and 5 and 3 | coiled (number of animals) ([2]; 60uM): 8 and 7 and 5 and 4 and 9 | no phene (number of animals) ([2]; 60uM): 0 | paralyzed (number of animals) ([2]; 60uM): 10 and 9 and 8 and 11 | EC50 [2]: 4 ± 1.1 µM | % effect (motility), DIROIM MF ([3]; 0.016 µM): 0% | % effect (motility), DIROIM MF ([3]; 0.08 µM): 0% | % effect (motility), DIROIM MF ([3]; 0.4 µM): 0% | % effect (motility), DIROIM MF ([3]; 2 µM): 0% | % effect (motility), DIROIM MF ([3]; 10 µM): 0% | EC50 [4]: 52.4 µM | mean % any phene ([4]; conc 3.75): 0% | rep 1 atypical locomotion ([4]; conc 3.75): 0 | rep 1 coiled ([4]; conc 3.75): 0 | rep 1 no phene ([4]; conc 3.75): 20 | rep 1 paralyzed ([4]; conc 3.75): 0 | rep 2 atypical locomotion ([4]; conc 3.75): 0 | rep 2 coiled ([4]; conc 3.75): 0 | rep 2 no phene ([4]; conc 3.75): 20 | rep 2 paralyzed ([4]; conc 3.75): 0 | rep 3 atypical locomotion ([4]; conc 3.75): 0 | rep 3 coiled ([4]; conc 3.75): 0 | rep 3 no phene ([4]; conc 3.75): 20 | rep 3 paralyzed ([4]; conc 3.75): 0 | mean % any phene ([4]; conc 15): 0% | rep 1 atypical locomotion ([4]; conc 15): 0 | rep 1 coiled ([4]; conc 15): 0 | rep 1 no phene ([4]; conc 15): 20 | rep 1 paralyzed ([4]; conc 15): 0 | rep 2 atypical locomotion ([4]; conc 15): 0 | rep 2 coiled ([4]; conc 15): 0 | rep 2 no phene ([4]; conc 15): 20 | rep 2 paralyzed ([4]; conc 15): 0 | rep 3 atypical locomotion ([4]; conc 15): 0 | rep 3 coiled ([4]; conc 15): 0 | rep 3 no phene ([4]; conc 15): 20 | rep 3 paralyzed ([4]; conc 15): 0 | mean % any phene ([4]; conc 60): 92.5% | rep 1 atypical locomotion ([4]; conc 60): 6 and 10 | rep 1 coiled ([4]; conc 60): 5 and 4 | rep 1 no phene ([4]; conc 60): 5 and 4 | rep 1 paralyzed ([4]; conc 60): 4 and 2 | rep 2 atypical locomotion ([4]; conc 60): 12 and 10 | rep 2 coiled ([4]; conc 60): 5 and 7 | rep 2 no phene ([4]; conc 60): 0 | rep 2 paralyzed ([4]; conc 60): 3 | rep 3 atypical locomotion ([4]; conc 60): 9 and 10 | rep 3 coiled ([4]; conc 60): 8 and 7 | rep 3 no phene ([4]; conc 60): 0 | rep 3 paralyzed ([4]; conc 60): 3
